Source: US7615361B2, “Toxicity screening methods” (Ceetox, Inc., priority 2006, dated 2009)

Key:
[1] = test system: reactive oxygen species (ROS); experiment: DCFDA fluorescence; type: cell-based, rat; conditions: 5 μM
Method: The production of reactive oxygen species (ROS) can be measured using 2′-7′dichloro-dihydrofluorescein diacetate (DCFDA).
Dihydro-2′,7′-dichloroflorescin-diacetate (DCFDA) for Monitoring Peroxide Formation: DCFDA (Sigma C-6827) was dissolved in DMSO at a concentration of 205 mM. The stock was diluted to 50 μM in phosphate buffered saline. Cells were preloaded with DCFDA for 1 hour prior to dosing with test compounds. Positive control wells were dosed with freshly prepared 300 μM t-Butyl hydroperoxide (tBHP). After compound exposure, the plates were washed with phosphate buffered saline and read at 485/530 in a Packard Fusion plate reader.
Dihydro-2′,7′-dichloroflorescin-diacetate (DCFDA) for Monitoring Peroxide Formation: Plates were read at 485/530 in a Packard Fusion plate reader or equivalent.

[2] = Intracellular total glutathione (GSH); conditions: human
Method: Intracellular Glutathione (GSH) Levels: Intracellular glutathione levels were determined essentially as described by Griffith (1980) with modifications. At the end of the exposure period, the medium was removed from the cells and metaphosphoric acid (MPA) was added to each well. Plates were then shaken for 5 min at room temperature and stored at −20° C. until needed.
The sample plates were thawed just prior to analysis and centrifuged at >2000×g for at least 2 min. Sample aliquots were removed and transferred to a clean 96-well plate along with appropriate standard curve controls. Sample pH was neutralized just prior to analysis and each well received an aliquot of sodium phosphate reaction buffer containing EDTA, DTNB, NADPH, and glutathione reductase. The plates were mixed for 15-30 min at room temperature and glutathione content was determined calorimetrically with a Packard Fusion or equivalent reader at 415 nm.
Intracellular Glutathione (GSH) Levels: The assay is based on the concept that all GSH is oxidized to GSSG by DTNB reagent. Two molecules of GSH are required to make one molecule of GSSG. Total GSH was determined by reducing GSSG to 2GSH with glutathione reductase. A standard curve was prepared with oxidized glutathione (GSSG) over a range of concentrations. These concentrations are then converted to glutathione equivalents (GSX) essentially by multiplying the GSSG standard concentrations by 2. The amount of GSX expressed as pmoles/well was determined using the standard curve and regression analysis.
The test compound consisted of two parts mixed in a constant ratio of 5:1. The final test mixture consisted of Test mix 1 and Test mix 2, which were received as frozen solutions. The test mixture was tested in a ratio of 5:1 COMP A in five different cell types which included the following: SK-MEL28, human hepatocytes, HUVEC, C32, and NHEM cells. Cells were seeded into 96-well plates and cultured in medium containing 10% bovine serum. Following an equilibration period of 48 hr, the cells were treated with the test compound mix at concentrations of COMP A (μg/mL)=(250:50), (125:25), (25:12.5), (12.5:2.5), (2.5:1.25), (1.25:0.25), and (0.25:0.05) for 24 hr (overnight) at 37° C. in 5% CO2. […] Following an equilibration period of 4 hr, the cells were treated with the test compound mix at concentrations of COMP A (μg/mL)=(250:50), (125:25), (25:12.5), (12.5:2.5), (2.5:1.25), (1.25:0.25), and (0.25:0.05) for 24 hr (overnight) at 37° C. in 5% CO2.
Experimental Protocol: The test compounds were shipped on dry ice for testing. The compounds were stored frozen at −80° C. until needed. Dosing solutions were prepared in complete culture medium. SK-MEL28, human hepatocytes, HUVEC, C32, and NHEM cells were used as the test systems. Cells were seeded into 96-well plates and allowed to equilibrate for approximately 48 hr. Following the equilibration period the cells were exposed to the test compound mix at concentrations of COMP A (μg/mL)=(250:50), (125:25), (25:12.5), (12.5:2.5), (2.5:1.25), (1.25:0.25), and (0.25:0.05). Solubility was determined by Nephalometry techniques immediately after dosing and prior to harvesting the cells at 24 hr. Following the exposure period, the cells or their supernatant (culture medium) were analyzed for changes in cell proliferation, membrane leakage, mitochondrial function, oxidative stress, and apoptosis. The resultant exposure concentration response curves were graphed and analyzed for determining the concentration that produced a half maximal response or TC50.

SK-MEL28 cells = experiment: BrdU incorporation; type: cell-based, human; conditions: SK-MEL28, 24 hr exposure to 5 and 10 μM
Method: Bromodexoyurine (BrDU) Incorporation: This assay was used to monitor cumulative changes in DNA replication. The assay uses the thymidine analog BrdU to measure S-phase of cell replication and is considered to be the Gold Standard for cell proliferation. BrDU (10 μM) was included in the test compound dosing solution to allow BrDU incorporation during cell replication. BrDU was included for the duration of the exposure, 24 hr. After completion of exposure period, the cells were fixed and labeled with mouse monoclonal anti-BrDU (FITC). Fluorescence was measured using a Packard Fusion or equivalent plate reader at 485 nm excitation and 530 nm emission.
Bromodexoyurine (BrDU) Incorporation: After incubation, the test compound/BrDU solution was removed and cells were fixed. A solution containing mouse monoclonal anti-BrDU (FITC) was added and fluorescence was measured. Data were collected as relative fluorescent units (RFU). The blank was subtracted from the final well RFU. It represents the average of the first and last columns which contain no cells on that particular plate. The controls are untreated cells allowed to grow on the same plate. The compounds are represented by several separate RFU data points for each of the tested concentrations. The percent change relative to controls was calculated by dividing the average RFU by the control cell RFU and multiplying by 100.
Experiments were also conducted to verify the relationship between exposure time and the observed cytostatic effects of the test compound. An additional assay was used to monitor cumulative change in DNA replication. The assay uses the thymidine analog BrdU to measure S-phase of cell replication and is considered to be the Gold Standard for cell proliferation. […] The BrdU assay paralleled the MTT and propidium iodide assays. The apparent lower sensitivity of the BrdU assay is a reflection of the experimental design not the assay. BrdU data represents a cumulative effect from the beginning of exposure while the other assays are measuring one is remaining at the end of either the 24 hr or 72 hr exposure period. […] There was a trend toward increasing activity in caspase-3, a marker for cell apoptosis.

NRK cells = experiment: Caspase 3 activity (apoptosis); type: cell-based, rat
Method: Caspase 3 Procedure: Caspase 3 activity was determined using a caspase substrate (DEVD, Asp-Glu-Val-Asp) labeled with a fluorescent molecule, 7-Amino4-methylcoumarin (AMC). Caspase 3 cleaves the tetrapeptide between D and AMC, thus releasing the fluorogenic […] AMC. Following the test article exposure to cells in 96-well plates, medium was aspirated from plates and PBS added to each well. Plates were stored at −80° C. to lyse cells and store samples until further analysis. On the day of analysis, plates were removed from freezer and thawed. Caspase buffer with fluorescent substrate was added to each well and incubated at room temperature for 1 hr. AMC release was measured in a spectrofluorometer at an excitation wavelength of 360 nm and an emission wavelength of 460 nm. Values are expressed as relative fluorescent units (RFU).
Caspase Activity: After sample plates were completely thawed, the caspase substrate buffer mix was added to each plate. Plates were incubated at room temperature for 1hr, shielded from light. Plates were read using a in a spectrofluorometer at an excitation wavelength of 360 nm and an emission wavelength of 460 nm. Values were expressed as relative fluorescent units (RFU).
The key to the maximal response data can be found below Table 2.
The third experiment was done to evaluate the specificity and selectivity of the test compound in another non-tumor cell that was derived from normal rat kidney tissue.

Row | Compound | increase in DCFDA (ROS related) fluorescence [1] [fold] | CC50 at 24 h ([2]; C32 cells) [nM] | CC50 at 24 h ([2]; HUVEC cells) [nM] | CC50 at 24 h ([2]; human hepatocytes) [nM] | Cell proliferation as measured by the S-phase marker BrdU (SK-MEL28 cells) | Caspase 3 Activity (Index/Dose): Dose (NRK cells; 6 HR) [µM] | Caspase 3 Activity (Index/Dose): Index (NRK cells; 6 HR) | Caspase 3 Activity (Index/Dose): Dose (NRK cells; 24 HR) [µM] | Caspase 3 Activity (Index/Dose): Index (NRK cells; 24 HR)
1 | COc1cccc2c1C(=O)c1c(O)c3c(c(O)c1C2=O)C[C@@](O)(C(=O)CO)C[C@@H]3O[C@H]1C[C@H](N)[C@H](O)[C@H](C)O1 [ADRIAMYCIN, Adriamycin] | 4 |  |  |  |  |  |  |  | 
2 | CC[C@@]1(O)C(=O)OCc2c1cc1n(c2=O)Cc2cc3ccccc3nc2-1 [CAMPTOTHECIN, Camptothecin] |  | 1000 | 1000 | 44000 | undetectable | 100 | 3 (40-60 = 3) | 300 | 10 (180-200 = 10)
